Results as given in US4812483A, “Insecticidal alkenes” (Imperial Chemical Industries PLC, priority 1985, dated 1989).

Assays:
Type in all cases: in vivo
[1] = tested on: Myzus persicae (aphids); assay: Contact test, mortality of aphids (MP); conditions: 48 h, leaf, 2 days, read-out: grading of mortality, MP
Experimental: (§1) The activity of the compound was determined using a variety of insect pests. The compound was used in the form of liquid preparations containing 500 parts per million (ppm) by weight of the compound. The preparations were made by dissolving the compound in acetone and diluting the solutions with water containing 0.01% by weight of a wetting agent sold under the trade name "LISSAPOL" NX until the liquid preparations contained the required concentration of the compound. "Lissapol" is a Registered Trade Mark.
(§2) The test procedure adopted with regard to each pest was basically the same and comprised supporting a number of the pests on a medium which was usually a host plant or a foodstuff on which the pests feed, and treating either or both the pests and the medium with the preparations. The mortality of the pests was then assessed at periods usually varying from one to three days after the treatment.
(§3) The results of the tests are given in Table III for each of the compounds, at the rate in parts per million given in the second column as a grading of mortality designated as A, B or C wherein A indicates 80-100% mortality or knockdown, B indicates 50-79% mortality or knockdown and C indicates less than 50% mortality or knockdown.
(§4) In Table III the pest organism used is designated by a letter code and the pests species, the support medium or food, and the type and duration of test is given in Table II.

[2] = tested on: Nilaparvata lugens (green leaf hopper); assay: Contact test, mortality of Nilaparvata lugens (NL); conditions: 144 h, cabbage leaf, 6 days, read-out: grading of mortality, NL
Experimental: as §1, §2, §3, §4

[3] = tested on: Musca domestica (houseflies - adults); assay: Contact test, mortality of houseflies (MD); conditions: 24 h, cotton wool/sugar, 1 day, read-out: grading of mortality, MD
Experimental: as §1, §2, §3, §4

[4] = tested on: Blattella germanica (cockroach nymphs); assay: Residual test, mortality of cockroach nymphs (BG); conditions: 72 h, plastic pot, 3 days, read-out: grading of mortality, BG
Experimental: as §1, §2, §3, §4

[5] = tested on: Heliothis viriscens (tobacco budworm); assay: whole plant or invertebrate; conditions: in Gossypium hirsutum, 72 h, read-out: grading of mortality, HV
Experimental: as §1, §2, §3, §4

[6] = tested on: Chilo partellurs (Stem borers); assay: Residual test, mortality of stem borers (CP); conditions: 72 h, oil seed rape leaf, 3 days, read-out: grading of mortality, CP
Experimental: as §1, §2, §3, §4

[7] = tested on: Diabrotica balteata (rootworm larvae); assay: Residual test, mortality of rootworm larvae (DB); conditions: 72 h, filter paper/maize seed, 3 days, read-out: grading of mortality, DB
Experimental: as §1, §2, §3, §4

[8] = tested on: Tetranychus urticae (red spider mites - adult); assay: Contact test, mortality of red spider mites (TU); conditions: 72 h, French bean leaf, 3 days, read-out: grading of mortality, TU
Experimental: as §1, §2, §3, §4
(red spider mites - adult)

| Structure (SMILES) | mortality at 500 ppm [1] | mortality at 500 ppm [2] | mortality at 500 ppm [3] | mortality at 500 ppm [4] | mortality at 500 ppm [5] | mortality at 500 ppm [6] | mortality at 500 ppm [7] | mortality at 500 ppm [8] |
| --- | --- | --- | --- | --- | --- | --- | --- | --- |
| CC(C)(C=C(Cl)Cl)COCc1ccc(F)c(Oc2ccccc2)c1 [Compound 1, 2,2-dimethyl-1-(4-fluoro-3-phenoxybenzyloxy)-4,4-dichlorobut-3-ene] | < 50% | 80 to 100% | 80 to 100% | 80 to 100% | 80 to 100% | 80 to 100% | 80 to 100% | – |
| C=CC(C)(C)COCc1cccc(Oc2ccccc2)c1 [Compound 2, 3,3-Dimethyl-4-(3-phenoxybenzyloxy)but-1-ene] | < 50% | 80 to 100% | 80 to 100% | < 50% | < 50% | – | 80 to 100% | – |
| CC(C)(C=C(Br)Br)COCc1cccc(Oc2ccccc2)c1 [Compound 3, 2,2-dimethyl-1-(3-phenoxybenzyloxy)-4,4-dibromobut-3-ene] | < 50% | 50 to 79% | < 50% | < 50% | < 50% | 80 to 100% | < 50% | – |
| CC(C)(C=C(Cl)Cl)COCc1cccc(Oc2ccccc2)c1 [Compound 4, 2,2-dimethyl-1-(3-phenoxybenzyloxy)-4,4-dichlorobut-3-ene] | < 50% | 80 to 100% | < 50% | < 50% | < 50% | – | < 50% | < 50% |
| C=CC(C)(C)COCc1ccc(F)c(Oc2ccccc2)c1 [Compound 5, 3,3-dimethyl-4-(4-fluoro-3-phenoxybenzyloxy)but-1-ene] | 80 to 100% | 80 to 100% | 80 to 100% | 80 to 100% | < 50% | – | 80 to 100% | 80 to 100% |
| C=CC1(COCc2cccc(Oc3ccccc3)c2)CC1 [Compound 6, 1-(3-phenoxybenzyloxymethyl)-1-vinylcyclopropane] | < 50% | 50 to 79% | < 50% | < 50% | < 50% | < 50% | < 50% | < 50% |
| CC(C)(/C=C/Br)COCc1cccc(Oc2ccccc2)c1 [Compound 7, E-2,2-dimethyl-1-(3-phenoxybenzyloxy)-4-bromobut-3-ene] | < 50% | 50 to 79% | < 50% | < 50% | < 50% | < 50% | < 50% | < 50% |
| C=CC(C)(CC)COCc1cccc(Oc2ccccc2)c1 (stereo not shown) [Compound 8, 3-Ethyl-3-methyl-4(3-phenoxybenzyloxy)but-1-ene] | < 50% | 80 to 100% | 80 to 100% | < 50% | < 50% | – | 80 to 100% | 80 to 100% |
| ClC(Cl)=CC1(COCc2cccc(Oc3ccccc3)c2)CC1 [Compound 9, 1-(2,2-dichlorovinyl)-1-(3-phenoxybenzyloxymethyl)cyclopropane] | 80 to 100% | 80 to 100% | 80 to 100% | 50 to 79% | < 50% | – | 50 to 79% | < 50% |
| CC(C)(C=CCl)COCc1cccc(Oc2ccccc2)c1 [Compound 10, 2,2-dimethyl-1-(3-phenoxybenzyloxy)-4-chlorobut-3-ene] | < 50% | 80 to 100% | 50 to 79% | < 50% | – | < 50% | 80 to 100% | < 50% |
| CC(C)(C=C(F)Cl)COCc1cccc(Oc2ccccc2)c1 [Compound 11, Z,E-2,2-dimethyl-1-(3-phenoxybenzyloxy)-4-chloro-4-fluorobut-3-ene] | < 50% | 80 to 100% | 50 to 79% | 50 to 79% | 50 to 79% | – | 80 to 100% | < 50% |
| C=CC(C)(C)COCc1cccc(Oc2ccccc2)n1 [Compound 12, 3,3-Dimethyl-4-(6-phenoxypyrid-2-yl)methoxy-but-1-ene] | < 50% | 80 to 100% | < 50% | < 50% | < 50% | – | 80 to 100% | < 50% |
| CC(C)(C=C(Cl)Cl)COCc1cccc(Oc2ccccc2)n1 [Compound 13, 2,2-dimethyl-1-(6-phenoxypyrid-2-yl)methoxy-4,4-dichlorobut-3-ene] | 50 to 79% | 80 to 100% | 50 to 79% | 80 to 100% | 80 to 100% | – | 80 to 100% | < 50% |
| C=CC(C)(C)COCc1ccc(F)c(Cc2ccccc2)c1 [Compound 14, 3,3-Dimethyl-4-(3-benzyl-4-fluorobenzyloxy)but-1-ene] | < 50% | 80 to 100% | 80 to 100% | 50 to 79% | < 50% | – | 80 to 100% | < 50% |
| CC(C)(C=C(F)F)COCc1ccc(F)c(Oc2ccccc2)c1 [Compound 15, 2,2-dimethyl-1-(4-fluoro-3-phenoxybenzyloxy)-4,4-difluorobut-3-ene] | 80 to 100% | 80 to 100% | 80 to 100% | 80 to 100% | 80 to 100% | – | 80 to 100% | 80 to 100% |
| CC(C)(C=C(F)F)COCc1cccc(Oc2ccccc2)n1 [Compound 16, 2,2-dimethyl-1-(6-phenoxypyrid-2-yl)methoxy-1,1-difluorobut-1-ene] | 80 to 100% | 80 to 100% | – | 80 to 100% | 80 to 100% | – | 80 to 100% | 80 to 100% |
| CC(C)(C=C(F)F)COCc1cccc(Oc2ccccc2)c1 [Compound 17] | < 50% | 80 to 100% | – | 80 to 100% | < 50% | – | 80 to 100% | < 50% |
| CC(C)(C=C(F)F)COCc1ccc(F)c(Cc2ccccc2)c1 [Compound 18] | < 50% | 80 to 100% | – | 80 to 100% | 80 to 100% | – | 80 to 100% | 50 to 79% |
| CC(C)(C=C(F)Cl)COCc1cccc(Oc2ccccc2)n1 [Compound 19, E,Z-2,2-dimethyl-1-(6-phenoxypyrid-2-yl)methoxy-4-chloro-4-fluorobut-3-ene] | 50 to 79% | 80 to 100% | – | 50 to 79% | < 50% | – | 80 to 100% | 50 to 79% |
| CC(C)(C=C(Cl)Cl)COCc1ccc(F)c(Cc2ccccc2)c1 [Compound 20, 2,2-dimethyl-1-(3-benzyl-4-fluorobenzyloxy)-4,4-dichlorobut-3-ene] | < 50% | 80 to 100% | – | < 50% | < 50% | – | < 50% | < 50% |
